Experiments:
Male NMRI mice [1] = system: Male NMRI mice; set-up: method as in PMID 16697366, PMID 12122501; conditions: 10–100 µg/kg i.p. ref 15, 27; cited from earlier work
[2] = set-up: method as in PMID 30232095; conditions: native peptide ref 9; cited from earlier work
sst4 receptor = molecular target: T1, sst4 receptor (Homo sapiens, UniProt P31391); assay: sst4 receptor-linked G-protein activation, [35S]GTPγS binding assay on membranes of sst4-expressing CHO cells; assay type: biochemical
T1 construct: expressed in transfected cells; host or cells: CHO cells
T1 sequence (P31391 whole entry): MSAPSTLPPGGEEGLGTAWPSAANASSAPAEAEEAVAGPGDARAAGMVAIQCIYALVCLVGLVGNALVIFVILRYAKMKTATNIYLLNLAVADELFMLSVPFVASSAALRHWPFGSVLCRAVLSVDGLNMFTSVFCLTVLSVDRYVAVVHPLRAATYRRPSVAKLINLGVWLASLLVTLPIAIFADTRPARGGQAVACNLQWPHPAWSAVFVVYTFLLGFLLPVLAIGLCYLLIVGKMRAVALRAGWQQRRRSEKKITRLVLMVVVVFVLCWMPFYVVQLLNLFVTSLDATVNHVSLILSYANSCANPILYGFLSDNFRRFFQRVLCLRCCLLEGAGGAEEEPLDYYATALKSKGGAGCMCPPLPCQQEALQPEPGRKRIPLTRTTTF
Description: Membrane fractions were prepared from CHO cells, which express the sst4 receptor, in Tris–ethylene glycol-bis(2-aminoethyl)tetraacetic acid (Tris–EGTA) buffer (50 mM Tris–HCl (Sigma, St. Louis, MO, USA), 1 mM EGTA (Sigma, St. Louis, MO, USA), 3 mM MgCl2 (Sigma, St. Louis, MO, USA), 100 mM NaCl (Sigma, St. Louis, MO, USA), pH 7.4, 10 μg of protein/sample). The fractions were incubated in the buffer containing 0.05 nM guanosine triphosphate (GTP) (BioChemica International Inc., Melbourne, Florida, USA), labeled on the gamma phosphate group with ^35S ([^35S]GTPγS) (Isotop Institute, Budapest, Hungary) and increasing concentrations (1 nM to 10 µM) of C1, C2, C3 and C4 compounds for 60 min at 30 °C, in the presence of 30 μM guanosine diphosphate (GDP) (Sigma, St. Louis, MO, USA). We determined the nonspecific binding in the presence of 10 μM unlabeled GTPγS and total binding in the absence of test compounds. Samples were filtrated through Whatman GF/B glass fiber filters using 48-well Slot Blot Manifold from Cleaver Scientific (Cleaver Scientific Ltd., Rugby, Warwickshire, United Kingdom). Filters were washed with ice-cold 50 mM Tris–HCl buffer (pH 7.4) and radioactivity was measured in a β-counter (PerkinElmer Inc., Waltham, MA, USA). The test-compound-induced G-protein activation was given as percentage over the specific [^35S]GTPγS binding detected in the absence of agonists.
(§1) In the sst4 receptor activation assay, all the compounds were dissolved in dimethyl sulfoxide (DMSO) (Szkarabeusz Ltd., Pécs, Hungary). The concentration of the stock solutions was 10 mM and was diluted with distilled water to reach the final concentrations. For the in vivo experiments, 1 mg of the compounds was rubbed dry in a braying mortar, suspended thoroughly in 1 mL 1.25% methylcellulose (MC) (Pharmacy of University of Pécs, Pécs, Hungary) solution and then dissolved in sterile bidistilled water to get a 1000 µg/mL stock solution freshly every experimental day. Most microsuspensions looked opalescent; they were shaken properly, sonicated, and further diluted with 1.25% MC to obtain the 25 µg/mL solution for oral administrations (0.2 mL/10 g body weight for the 500 µg/kg dose). The solutions were shaken and sonicated again directly before use. The vehicle was always 1.25% MC dissolved in sterile bidistilled water.

Male NMRI mice [3] = assay: RTX-induced acute neurogenic inflammatory thermal allodynia and mechanical hyperalgesia; assay type: in vivo, mouse; conditions: oral pretreatment 1 h before intraplantar RTX, printed dose 500 µg/kg
Description: The investigated compounds (500 µg/kg p.o.) or the vehicle were administered orally 1 h before the induction of the acute neurogenic inflammation by intraplantar RTX (Sigma, St. Louis, MO, USA) injection (20 µL, 0.1 µg/mL) into the right hindpaw. RTX evokes an acute neurogenic inflammatory reaction with the development of a rapid thermal allodynia, mainly due to peripheral sensitization mechanisms, and a later developing mechanical hyperalgesia due also to central sensitization. The nociceptive heat threshold was determined before (control) and 10, 20 and 30 min after RTX administration with an increasing-temperature hot plate (IITC Life Science, Woodland Hills, CA, USA). […] The mechanonociceptive threshold was measured with an electronic von Frey device (dynamic plantar aesthesiometer (DPA), Ugo Basile, Comerio, Italy) prior to RTX injection and 30, 60 and 90 min afterwards. The measurement at 30 min was performed immediately after the last heat threshold measurement. The experiment consisted of two separate series on consecutive days and the number of animals in the control group was six per day. Therefore, the control group contained 12 mice, and six and five mice were used in the C1- and C2-treated groups, respectively.
as §1
Male NMRI mice (8–12 weeks old) bred in the Laboratory Animal House of the Department of Pharmacology and Pharmacotherapy of the University of Pecs were kept in standard plastic cages at 24–25 °C, under a 12–12 h light–dark cycle and provided with standard rodent chow and water ad libitum. […]

Delta (DOP) = molecular target: T2, Delta (DOP) (Homo sapiens, UniProt P41143); assay: Selectivity profile (Eurofins Cerep), cellular agonist/antagonist effect; assay type: cell-based; conditions: 1 µM
T2 construct: Eurofins Cerep (contract assay)
T2 sequence (P41143 whole entry): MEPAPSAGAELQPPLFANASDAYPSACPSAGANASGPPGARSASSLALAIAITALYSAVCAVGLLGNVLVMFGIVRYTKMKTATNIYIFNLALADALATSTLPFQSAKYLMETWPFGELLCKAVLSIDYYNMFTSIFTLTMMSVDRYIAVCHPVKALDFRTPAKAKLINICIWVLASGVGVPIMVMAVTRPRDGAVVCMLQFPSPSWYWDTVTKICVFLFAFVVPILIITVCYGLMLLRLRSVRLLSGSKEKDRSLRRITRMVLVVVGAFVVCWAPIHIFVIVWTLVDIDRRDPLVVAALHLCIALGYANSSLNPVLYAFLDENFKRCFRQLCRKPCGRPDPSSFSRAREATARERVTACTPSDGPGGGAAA
Description: (§2) The evaluation was performed by Eurofins Cerep (France). Compound binding was calculated as a % inhibition of the binding of a radioactively labeled ligand specific for each target. Enzyme inhibition effect was calculated as a % inhibition of control enzyme activity. Cellular agonist effect was calculated as a % of control response to a known reference agonist for each target, and cellular antagonist effect was calculated as a % inhibition of control reference agonist response for each target. In each experiment the respective reference compound was tested concurrently with Compound 1 [71, 72, 73, 74, 75, 76, 77, 78]. See in Supplementary Materials.

D2S = molecular target: T3, D2S (Homo sapiens, UniProt P14416); assay: as above; assay type: cell-based; conditions: 1 µM
T3 construct: Eurofins Cerep (contract assay)
T3 sequence (P14416 1-414 isoform P14416-2): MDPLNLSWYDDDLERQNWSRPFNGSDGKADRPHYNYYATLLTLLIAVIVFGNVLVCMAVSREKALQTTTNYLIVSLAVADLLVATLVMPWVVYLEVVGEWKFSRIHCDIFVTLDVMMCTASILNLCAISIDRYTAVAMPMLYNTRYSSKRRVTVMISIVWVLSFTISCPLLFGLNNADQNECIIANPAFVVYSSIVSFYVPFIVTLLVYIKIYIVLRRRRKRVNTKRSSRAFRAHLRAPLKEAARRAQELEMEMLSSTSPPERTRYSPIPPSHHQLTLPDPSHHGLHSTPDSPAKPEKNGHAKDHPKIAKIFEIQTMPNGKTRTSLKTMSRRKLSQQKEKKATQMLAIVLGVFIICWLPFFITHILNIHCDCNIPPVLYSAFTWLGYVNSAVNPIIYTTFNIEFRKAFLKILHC
Description: as §2

CB1 = molecular target: T4, CB1 (Homo sapiens, UniProt P21554); assay: as above; assay type: cell-based; conditions: 1 µM
T4 construct: Eurofins Cerep (contract assay)
T4 sequence (P21554 whole entry): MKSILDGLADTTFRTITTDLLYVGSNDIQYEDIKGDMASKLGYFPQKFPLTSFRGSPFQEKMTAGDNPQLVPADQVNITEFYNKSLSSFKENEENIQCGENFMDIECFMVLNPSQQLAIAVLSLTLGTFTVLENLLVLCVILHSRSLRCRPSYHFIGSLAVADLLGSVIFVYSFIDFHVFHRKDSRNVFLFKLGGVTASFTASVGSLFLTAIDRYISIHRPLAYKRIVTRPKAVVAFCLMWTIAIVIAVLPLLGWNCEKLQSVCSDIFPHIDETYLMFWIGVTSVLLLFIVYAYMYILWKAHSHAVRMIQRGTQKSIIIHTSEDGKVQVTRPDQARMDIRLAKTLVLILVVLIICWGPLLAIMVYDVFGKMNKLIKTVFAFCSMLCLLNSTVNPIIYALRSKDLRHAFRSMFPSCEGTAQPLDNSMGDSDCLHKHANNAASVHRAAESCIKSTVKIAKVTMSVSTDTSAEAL
Description: as §2

D1 = molecular target: T5, D1 (Homo sapiens, UniProt P21728); assay: as above; assay type: cell-based; conditions: 1 µM
T5 construct: Eurofins Cerep (contract assay)
T5 sequence (P21728 whole entry): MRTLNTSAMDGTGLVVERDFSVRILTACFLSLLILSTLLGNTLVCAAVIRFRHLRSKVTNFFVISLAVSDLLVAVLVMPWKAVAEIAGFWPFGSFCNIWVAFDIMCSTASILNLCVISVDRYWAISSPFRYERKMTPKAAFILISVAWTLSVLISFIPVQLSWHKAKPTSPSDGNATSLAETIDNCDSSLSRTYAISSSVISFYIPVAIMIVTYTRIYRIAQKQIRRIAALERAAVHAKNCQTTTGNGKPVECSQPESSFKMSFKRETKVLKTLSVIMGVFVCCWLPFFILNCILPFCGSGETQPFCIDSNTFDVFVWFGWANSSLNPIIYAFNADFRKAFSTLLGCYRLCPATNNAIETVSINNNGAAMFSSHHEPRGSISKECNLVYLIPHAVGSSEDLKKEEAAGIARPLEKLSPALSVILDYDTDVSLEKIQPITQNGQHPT
Description: as §2

Kappa (KOP) = molecular target: T6, Kappa (KOP) (Homo sapiens, UniProt P41145); assay: as above; assay type: cell-based; conditions: 1 µM
T6 construct: Eurofins Cerep (contract assay)
T6 sequence (P41145 whole entry): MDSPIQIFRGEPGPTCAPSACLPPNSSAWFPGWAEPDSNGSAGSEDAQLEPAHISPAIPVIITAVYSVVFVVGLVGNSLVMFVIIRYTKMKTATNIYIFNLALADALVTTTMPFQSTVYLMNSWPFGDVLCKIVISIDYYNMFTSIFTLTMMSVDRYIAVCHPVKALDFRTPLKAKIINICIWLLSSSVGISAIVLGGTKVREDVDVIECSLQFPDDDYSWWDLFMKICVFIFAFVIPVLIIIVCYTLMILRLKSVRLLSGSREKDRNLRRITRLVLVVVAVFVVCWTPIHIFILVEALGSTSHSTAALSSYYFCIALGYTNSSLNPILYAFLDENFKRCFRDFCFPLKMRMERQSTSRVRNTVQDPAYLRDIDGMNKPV
Description: as §2

CB2 = molecular target: T7, CB2 (Homo sapiens, UniProt P34972); assay: as above; assay type: cell-based; conditions: 1 µM
T7 construct: Eurofins Cerep (contract assay)
T7 sequence (P34972 whole entry): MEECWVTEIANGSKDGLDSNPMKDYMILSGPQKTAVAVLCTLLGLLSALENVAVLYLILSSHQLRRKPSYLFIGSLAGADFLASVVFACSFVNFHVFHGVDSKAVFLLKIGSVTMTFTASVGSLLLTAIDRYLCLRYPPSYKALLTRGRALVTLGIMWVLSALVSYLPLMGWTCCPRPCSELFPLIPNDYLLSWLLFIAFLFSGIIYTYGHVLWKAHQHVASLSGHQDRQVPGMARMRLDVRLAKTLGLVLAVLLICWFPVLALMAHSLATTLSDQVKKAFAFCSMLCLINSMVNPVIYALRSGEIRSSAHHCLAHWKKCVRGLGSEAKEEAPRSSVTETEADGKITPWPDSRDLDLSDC
Description: as §2

Mu (MOP) = molecular target: T8, Mu (MOP) (Homo sapiens, UniProt P35372); assay: as above; assay type: cell-based; conditions: 1 µM
T8 construct: Eurofins Cerep (contract assay)
T8 sequence (P35372 whole entry): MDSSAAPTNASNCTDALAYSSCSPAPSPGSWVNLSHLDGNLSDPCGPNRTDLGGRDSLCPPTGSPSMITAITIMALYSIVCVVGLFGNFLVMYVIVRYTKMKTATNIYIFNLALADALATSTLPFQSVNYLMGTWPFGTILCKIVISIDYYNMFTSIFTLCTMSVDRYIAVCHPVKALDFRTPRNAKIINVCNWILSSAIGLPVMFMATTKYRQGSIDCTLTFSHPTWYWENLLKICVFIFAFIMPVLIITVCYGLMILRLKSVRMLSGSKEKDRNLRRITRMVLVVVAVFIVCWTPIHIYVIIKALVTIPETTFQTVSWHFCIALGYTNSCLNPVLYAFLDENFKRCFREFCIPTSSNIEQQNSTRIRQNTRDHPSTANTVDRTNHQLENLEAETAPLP
Description: as §2

K+ channel hERG = molecular target: T9, K+ channel hERG (Homo sapiens, UniProt Q12809); assay: Selectivity profile (Eurofins Cerep), radioligand binding; conditions: 1 µM, % inhibition of binding of radiolabeled ligand
T9 construct: Eurofins Cerep (contract assay)
Description: as §2

Ca2+ channel = assay: as above; conditions: 1 µM, % inhibition of binding of radiolabeled ligand
Description: as §2

Male NMRI mice [4] = assay: Partial sciatic nerve ligation-induced chronic traumatic neuropathic mechanical hyperalgesia; assay type: in vivo, mouse
Description: After conditioning and two control mechanonociceptive measurements on 2 consecutive days, mice were anaesthetized by the combination of ketamine (100 mg/kg, i.p.) and xylazine (10 mg/kg, i.p.). Traumatic mononeuropathy was achieved by one-third to one-half part ligation of the right sciatic nerve. Significant decrease in the mechanical threshold develops 7 days after operation. The mechanonociceptive threshold of the plantar surface of the hindpaws was measured by DPA on the 7th postoperative day. The paw withdrawal threshold was obtained in grams (the maximal value was 10 g; ramp time of 4 s). The compounds (500 µg/kg) or the vehicle were administered orally on day 7, one hour before the repeated measurement. The experiment consisted of separate series on 3 consecutive days, and there were 2–3 vehicle-treated control animals in every series. Therefore, each group contained 8 mice.
as §1
Male NMRI mice (8–12 weeks old) bred in the Laboratory Animal House of the Department of Pharmacology and Pharmacotherapy of the University of Pecs were kept in standard plastic cages at 24–25 °C, under a 12–12 h light–dark cycle and provided with standard rodent chow and water ad libitum. All experimental procedures complied with the recommendations of the 1998/XXVIII Act of the Hungarian Parliament on Animal Protection and Consideration Decree of Scientific Procedures of Animal Experiments (63/2010) and were approved by the Ethics Committee on Animal Research of Pecs University according to the Ethical Codex of Animal Experiments; license was given (license No. BA1/35/55-50/2017). We made all efforts to minimize the number and suffering of the animals used in this study.

PDE3A = molecular target: T10, PDE3A (Homo sapiens, UniProt Q14432); assay: Selectivity profile (Eurofins Cerep), enzyme inhibition; assay type: biochemical; conditions: % inhibition of control enzyme activity, read-out: Enzymatic Activity (%)
T10 construct: Eurofins Cerep (contract assay)
T10 sequence (Q14432 whole entry, species assumed): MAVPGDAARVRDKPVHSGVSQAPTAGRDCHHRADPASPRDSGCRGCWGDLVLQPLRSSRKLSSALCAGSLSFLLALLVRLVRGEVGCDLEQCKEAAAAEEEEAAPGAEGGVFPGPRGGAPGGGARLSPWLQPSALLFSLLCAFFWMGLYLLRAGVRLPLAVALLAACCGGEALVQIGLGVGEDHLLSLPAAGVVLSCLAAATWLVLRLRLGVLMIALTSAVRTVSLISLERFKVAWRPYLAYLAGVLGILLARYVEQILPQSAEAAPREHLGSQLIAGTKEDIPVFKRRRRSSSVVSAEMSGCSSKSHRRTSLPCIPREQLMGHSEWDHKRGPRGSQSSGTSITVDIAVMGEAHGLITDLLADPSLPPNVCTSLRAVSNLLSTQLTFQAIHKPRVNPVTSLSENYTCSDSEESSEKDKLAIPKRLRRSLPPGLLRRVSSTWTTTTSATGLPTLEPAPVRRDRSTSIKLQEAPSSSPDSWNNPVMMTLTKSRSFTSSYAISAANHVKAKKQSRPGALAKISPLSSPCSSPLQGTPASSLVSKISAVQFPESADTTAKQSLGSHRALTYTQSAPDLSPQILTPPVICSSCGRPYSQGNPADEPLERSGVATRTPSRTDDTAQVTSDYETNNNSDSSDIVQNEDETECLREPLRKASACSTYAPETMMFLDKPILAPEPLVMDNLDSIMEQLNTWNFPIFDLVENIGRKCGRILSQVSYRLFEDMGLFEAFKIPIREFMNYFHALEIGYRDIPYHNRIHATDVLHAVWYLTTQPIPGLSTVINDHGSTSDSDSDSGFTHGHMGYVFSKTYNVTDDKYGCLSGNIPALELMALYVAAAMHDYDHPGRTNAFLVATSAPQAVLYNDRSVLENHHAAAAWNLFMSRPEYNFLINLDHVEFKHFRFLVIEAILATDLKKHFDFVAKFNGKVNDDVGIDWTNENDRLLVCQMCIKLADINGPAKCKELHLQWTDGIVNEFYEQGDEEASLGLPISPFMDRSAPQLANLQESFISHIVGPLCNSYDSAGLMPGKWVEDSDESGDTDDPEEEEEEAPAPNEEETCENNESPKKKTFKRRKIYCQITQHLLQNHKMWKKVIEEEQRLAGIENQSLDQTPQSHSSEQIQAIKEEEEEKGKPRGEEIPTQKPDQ
Description: as §2

MAOA = molecular target: T11, MAOA (Homo sapiens, UniProt P21397); assay: as above; assay type: biochemical; conditions: % inhibition of control enzyme activity, read-out: Enzymatic Activity (%)
T11 construct: Eurofins Cerep (contract assay)
T11 sequence (P21397 1-527): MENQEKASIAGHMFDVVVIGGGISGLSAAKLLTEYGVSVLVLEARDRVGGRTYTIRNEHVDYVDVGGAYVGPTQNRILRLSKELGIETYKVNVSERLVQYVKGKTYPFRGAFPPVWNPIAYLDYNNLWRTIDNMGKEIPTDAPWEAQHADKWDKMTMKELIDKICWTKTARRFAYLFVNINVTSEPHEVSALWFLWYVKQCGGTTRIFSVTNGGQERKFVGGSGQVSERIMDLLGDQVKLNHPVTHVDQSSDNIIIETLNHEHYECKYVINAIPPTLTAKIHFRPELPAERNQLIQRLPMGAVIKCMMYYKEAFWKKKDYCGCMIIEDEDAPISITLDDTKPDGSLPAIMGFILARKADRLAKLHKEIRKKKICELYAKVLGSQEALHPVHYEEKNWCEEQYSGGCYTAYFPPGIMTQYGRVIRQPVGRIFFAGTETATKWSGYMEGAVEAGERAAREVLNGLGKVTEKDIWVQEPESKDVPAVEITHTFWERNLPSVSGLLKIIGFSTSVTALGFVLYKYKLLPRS
Description: as §2

PDE4D2 = molecular target: T12, PDE4D2 (Homo sapiens, UniProt Q08499); assay: as above; assay type: biochemical; conditions: % inhibition of control enzyme activity, read-out: Enzymatic Activity (%)
T12 construct: Eurofins Cerep (contract assay)
T12 sequence (Q08499 303-809 limits assumed): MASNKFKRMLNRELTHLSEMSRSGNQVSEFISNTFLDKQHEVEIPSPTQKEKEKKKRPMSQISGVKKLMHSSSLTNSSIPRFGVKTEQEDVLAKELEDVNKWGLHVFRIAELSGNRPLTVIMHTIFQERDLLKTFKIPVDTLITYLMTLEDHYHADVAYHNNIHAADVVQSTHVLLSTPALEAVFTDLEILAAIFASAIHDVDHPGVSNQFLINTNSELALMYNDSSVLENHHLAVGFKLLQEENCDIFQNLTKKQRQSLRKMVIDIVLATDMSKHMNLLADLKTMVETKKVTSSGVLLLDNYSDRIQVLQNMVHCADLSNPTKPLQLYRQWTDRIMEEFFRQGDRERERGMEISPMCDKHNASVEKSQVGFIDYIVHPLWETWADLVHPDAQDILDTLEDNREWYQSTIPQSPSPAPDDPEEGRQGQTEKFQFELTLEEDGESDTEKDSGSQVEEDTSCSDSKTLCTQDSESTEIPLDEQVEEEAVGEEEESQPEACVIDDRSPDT
Description: as §2

COX-2 = molecular target: T13, COX-2 (Homo sapiens, UniProt P35354); assay: as above; assay type: biochemical; conditions: % inhibition of control enzyme activity, read-out: Enzymatic Activity (%)
T13 construct: Eurofins Cerep (contract assay)
T13 sequence (P35354 18-604): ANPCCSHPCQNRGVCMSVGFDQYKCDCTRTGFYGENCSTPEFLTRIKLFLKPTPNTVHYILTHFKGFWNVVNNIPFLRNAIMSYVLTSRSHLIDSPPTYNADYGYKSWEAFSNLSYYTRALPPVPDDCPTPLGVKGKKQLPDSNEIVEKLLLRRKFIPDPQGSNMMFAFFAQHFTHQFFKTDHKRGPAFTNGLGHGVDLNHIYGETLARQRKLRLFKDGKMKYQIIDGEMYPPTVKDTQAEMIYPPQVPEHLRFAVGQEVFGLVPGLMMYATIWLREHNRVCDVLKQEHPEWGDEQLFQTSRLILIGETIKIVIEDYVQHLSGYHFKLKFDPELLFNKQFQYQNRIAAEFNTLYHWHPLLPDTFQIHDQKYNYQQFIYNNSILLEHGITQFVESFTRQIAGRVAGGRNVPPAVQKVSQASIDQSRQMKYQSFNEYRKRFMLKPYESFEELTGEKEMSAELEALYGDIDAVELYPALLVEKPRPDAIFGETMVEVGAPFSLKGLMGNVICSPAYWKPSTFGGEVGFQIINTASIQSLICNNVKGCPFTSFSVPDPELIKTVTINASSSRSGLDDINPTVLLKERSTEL
Description: as §2

[5] = % inhibition of control reference agonist response
[6] = % of control response to reference agonist
[7] = day 7 after sciatic nerve ligation, 500 µg/kg oral, 1 h later, n = 8
[8] = day 7 after sciatic nerve ligation, pretreatment self-control, n = 8

Cc1ccc(S(=O)(=O)N[C@@H](CCN)C(=O)N[C@@H](Cc2ccccc2)C(N)=O)c2ccccc12 [Compound J-2156]
Analgesic effect in partial sciatic nerve ligation model (Male NMRI mice [1]): potent and dose-dependent analgesic effects

somatostatin: native peptide released from capsaicin-sensitive sensory nerve terminals
Elimination half-life [2]: < 3 min

c1ccc(CCNc2ncnc3c2ccn3Cc2ccccc2)cc1 [Compound 1, (7-Benzyl-7H-pyrrolo[2,3-d]pyrimidin-4-yl)-phenethyl-amine]
EC50 (sst4 receptor; 1 nM to 10 µM, n = 3): 0.037 µM | Emax (sst4 receptor; [35S]GTPγS binding, mean ± SEM, n = 3, read-out: Maximal activation over the basal activity of the receptor (efficacy)): 218% | Effect on acute neurogenic inflammatory heat hyperalgesia (Male NMRI mice [3]; at 10 and 30 min): significantly decreased | Effect on RTX-induced mechanical hyperalgesia (Male NMRI mice [3]; at 30 min): significantly decreased | Antagonist Effect (%) (Delta (DOP); [5]): −1.4% | Agonist Effect (%) (Delta (DOP); [6]): −0.3% | Antagonist Effect (%) (D2S; [5]): −11.5% | Agonist Effect (%) (D2S; [6]): 17.2% | Antagonist Effect (%) (CB1; [5]): −1.5% | Agonist Effect (%) (CB1; [6]): 30.8% | Antagonist Effect (%) (D1; [5]): −10% | Agonist Effect (%) (D1; [6]): 3.3% | Antagonist Effect (%) (Kappa (KOP); [5]): 23.6% | Agonist Effect (%) (Kappa (KOP); [6]): −1.5% | Antagonist Effect (%) (CB2; [5]): 7.7% | Agonist Effect (%) (CB2; [6]): 58.9% | Antagonist Effect (%) (Mu (MOP); [5]): 20.2% | Agonist Effect (%) (Mu (MOP); [6]): 5.5% | Inhibition of radioligand binding (%) (K+ channel hERG): 23.6% | Inhibition of radioligand binding (Ca2+ channel): 19.4% | Mechanonociceptive threshold of operated limb, 1 h after treatment (Male NMRI mice [4]; [7]): 8.53 ± 0.37 g | Neuropathic mechanical hyperalgesia, 1 h after treatment (Male NMRI mice [4]; [7]): 9.98% ± 3.92 | Mechanonociceptive threshold of operated limb, before treatment (Male NMRI mice [4]; [8]): 6.51 ± 0.18 g | Neuropathic mechanical hyperalgesia, before treatment (Male NMRI mice [4]; [8]): 31.22% ± 2.11 | Anti-hyperalgesic effect on neuropathic mechanical hyperalgesia (Male NMRI mice [4]; traumatic nerve injury, single oral 500 µg/kg): approximately 70% | inhibition at 1 µM (PDE3A): -15% | inhibition at 1 µM (MAOA): 2.7% | inhibition at 1 µM (PDE4D2): -0.6% | inhibition at 1 µM (COX-2): -10.4%

Reference: paper PMC6940912, “Novel Drug-Like Somatostatin Receptor 4 Agonists are Potential Analgesics for Neuropathic Pain” (International Journal of Molecular Sciences, 2019)
